This is an account of results in ChEMBL document CHEMBL4330132, “5-Keto-3-cyano-2,4-diaminothiophenes as selective maternal embryonic leucine zipper kinase inhibitors” (Bioorg Med Chem Lett, 2019).

The target of assay [1] is Serine/threonine-protein kinase 10 (Homo sapiens) (UniProt O94804). Nature of the assay: Binding affinity to wild-type human partial length LOK (E16 to V314 residues) expressed in bacterial expression system assessed as residual binding level at 1 uM by Kinomescan method relative to control.
Chain of Serine/threonine-protein kinase 10 (Homo sapiens) (O94804 whole entry, looked up, the tested form may be a part): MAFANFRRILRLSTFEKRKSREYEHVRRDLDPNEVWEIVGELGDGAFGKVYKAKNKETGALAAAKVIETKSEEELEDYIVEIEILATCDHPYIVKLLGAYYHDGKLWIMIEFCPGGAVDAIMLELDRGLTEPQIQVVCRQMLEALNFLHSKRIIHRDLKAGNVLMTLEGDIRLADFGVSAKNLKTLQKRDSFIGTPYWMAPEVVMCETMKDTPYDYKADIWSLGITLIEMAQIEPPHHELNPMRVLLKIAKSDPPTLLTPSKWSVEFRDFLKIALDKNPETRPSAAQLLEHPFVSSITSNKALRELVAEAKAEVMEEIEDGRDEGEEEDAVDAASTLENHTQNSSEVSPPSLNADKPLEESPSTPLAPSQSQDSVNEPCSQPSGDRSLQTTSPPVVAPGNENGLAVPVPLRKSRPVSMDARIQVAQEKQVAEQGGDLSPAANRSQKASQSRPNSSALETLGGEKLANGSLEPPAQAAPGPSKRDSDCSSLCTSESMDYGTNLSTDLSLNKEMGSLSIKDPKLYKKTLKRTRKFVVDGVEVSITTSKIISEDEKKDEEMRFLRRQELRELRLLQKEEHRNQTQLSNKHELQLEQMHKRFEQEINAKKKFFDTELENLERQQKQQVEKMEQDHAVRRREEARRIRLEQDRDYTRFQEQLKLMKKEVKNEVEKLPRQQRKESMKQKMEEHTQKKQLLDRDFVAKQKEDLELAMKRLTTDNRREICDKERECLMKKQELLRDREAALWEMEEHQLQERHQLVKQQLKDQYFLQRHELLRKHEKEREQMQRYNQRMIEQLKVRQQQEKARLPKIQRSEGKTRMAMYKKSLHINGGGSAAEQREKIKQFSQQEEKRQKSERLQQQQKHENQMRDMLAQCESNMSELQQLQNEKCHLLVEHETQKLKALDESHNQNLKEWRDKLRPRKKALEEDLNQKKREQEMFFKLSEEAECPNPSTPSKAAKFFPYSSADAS
Assay [2] addresses Glycogen synthase kinase-3 beta (Homo sapiens) (UniProt P49841). Nature of the assay: Binding affinity to wild-type human full length GSK3B (M1 to T433 residues) expressed in mammalian expression system assessed as residual binding level at 1 uM by Kinomescan method relative to control.
Assay [3] concerns the target cAMP-dependent protein kinase catalytic subunit alpha (Homo sapiens) (UniProt P17612). Nature of the assay: Binding affinity to wild-type human partial length PKAC-alpha (G10 to F351 residues) expressed in bacterial expression system assessed as residual binding level at 1 uM by Kinomescan method relative to control.
Assay [4] has as its target Phosphatidylinositol 3-kinase C2 domain-containing subunit gamma (Homo sapiens) (UniProt O75747). The experiment in a line: Binding affinity to wild-type human partial length PIK3C2G (M1 to I1446 residues) expressed in mammalian expression system assessed as residual binding level at 1 uM by Kinomescan method relative to control.
Assay [5] has as its target Dual specificity mitogen-activated protein kinase kinase 6 (Homo sapiens) (UniProt P52564). Nature of the assay: Binding affinity to wild-type human partial length MEK6 (K36 to D334 residues) expressed in bacterial expression system assessed as residual binding level at 1 uM by Kinomescan method relative to control.
In assay [6] the target is CDK4/Cyclin D3 (Homo sapiens) (UniProt P11802+P30281). The experiment in a line: Binding affinity to wild-type human full length CDK4/cyclinD3 (M1 to E303 residues) expressed in mammalian expression system assessed as residual binding level at 1 uM by Kinomescan method relative to control.
Assay [7] deals with Mast/stem cell growth factor receptor Kit (Homo sapiens), P10721 [L576P]. Nature of the assay: Binding affinity to human partial length KIT L576P mutant (Y545 to D952 residues) expressed in bacterial expression system assessed as residual binding level at 1 uM by Kinomescan method relative to control.
The target in assay [8] is TRAF2 and NCK-interacting protein kinase (Homo sapiens) (UniProt Q9UKE5). The experiment in a line: Binding affinity to wild-type human partial length TNIK (D4 to K311 residues) expressed in bacterial expression system assessed as residual binding level at 1 uM by Kinomescan method relative to control.
In assay [9] the target is Discoidin domain-containing receptor 2 (Homo sapiens) (UniProt Q16832). Nature of the assay: Binding affinity to wild-type human partial length DDR2 (V555 to E855 residues) expressed in mammalian expression system assessed as residual binding level at 1 uM by Kinomescan method relative to control.
The target in assay [10] is Tyrosine-protein kinase receptor Tie-1 (Homo sapiens) (UniProt P35590). The experiment in a line: Binding affinity to wild-type human partial length TIE1 (T819 to A1138 residues) expressed in bacterial expression system assessed as residual binding level at 1 uM by Kinomescan method relative to control.
Assay [11] deals with Mast/stem cell growth factor receptor Kit (Homo sapiens), P10721 [D816V]. Nature of the assay: Binding affinity to human partial length KIT D816V mutant (I571 to D952 residues) expressed in bacterial expression system assessed as residual binding level at 1 uM by Kinomescan method relative to control.
The target in assay [12] is Dual specificity protein kinase CLK2 (Homo sapiens) (UniProt P49760). Nature of the assay: Binding affinity to wild-type human partial length CLK2 (D144 to R498 residues) expressed in bacterial expression system assessed as residual binding level at 1 uM by Kinomescan method relative to control.
Chain of Dual specificity protein kinase CLK2 (Homo sapiens) (P49760 whole entry, looked up, the tested form may be a part): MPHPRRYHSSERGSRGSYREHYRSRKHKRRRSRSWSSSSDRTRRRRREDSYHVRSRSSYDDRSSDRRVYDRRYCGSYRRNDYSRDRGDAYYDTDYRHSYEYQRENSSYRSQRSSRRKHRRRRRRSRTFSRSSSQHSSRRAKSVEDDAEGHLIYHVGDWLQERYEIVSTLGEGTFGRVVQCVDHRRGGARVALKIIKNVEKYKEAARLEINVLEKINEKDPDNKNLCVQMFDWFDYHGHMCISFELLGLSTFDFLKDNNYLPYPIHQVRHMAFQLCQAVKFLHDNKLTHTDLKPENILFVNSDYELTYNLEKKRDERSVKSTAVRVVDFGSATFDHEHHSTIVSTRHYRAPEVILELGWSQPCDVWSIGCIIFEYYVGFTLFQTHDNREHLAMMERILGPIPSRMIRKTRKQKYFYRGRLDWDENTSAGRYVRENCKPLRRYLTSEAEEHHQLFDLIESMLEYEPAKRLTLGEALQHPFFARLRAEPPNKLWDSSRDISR
Assay [13] addresses Serine/threonine-protein kinase Chk1 (Homo sapiens) (UniProt O14757). The experiment in a line: Binding affinity to wild-type human partial length CHEK1 (M1 to G289 residues) expressed in bacterial expression system assessed as residual binding level at 1 uM by Kinomescan method relative to control.
The target in assay [14] is NT-3 growth factor receptor (Homo sapiens) (UniProt Q16288). The experiment in a line: Binding affinity to wild-type human partial length TRKC (Q531 to G825 residues) expressed in mammalian expression system assessed as residual binding level at 1 uM by Kinomescan method relative to control.
The target in assay [15] is RAC-beta serine/threonine-protein kinase (Homo sapiens) (UniProt P31751). Nature of the assay: Binding affinity to wild-type human partial length AKT2 expressed in bacterial expression system assessed as residual binding level at 1 uM by Kinomescan method relative to control.
For assay [16], the target named is Ephrin type-B receptor 3 (Homo sapiens) (UniProt P54753). The experiment in a line: Binding affinity to wild-type human partial length EPHB3 (Q599 to T928 residues) expressed in bacterial expression system assessed as residual binding level at 1 uM by Kinomescan method relative to control.
Assay [17] deals with Receptor-type tyrosine-protein kinase FLT3 (Homo sapiens), P36888 [D835Y]. Nature of the assay: Binding affinity to human partial length FLT3 D835Y mutant (Q580 to Y969 residues) expressed in bacterial expression system assessed as residual binding level at 1 uM by Kinomescan method relative to control.
In assay [18] the target is Serine/threonine-protein kinase 32C (Homo sapiens) (UniProt Q86UX6). The experiment in a line: Binding affinity to wild-type human partial length YANK3 (M68 to G486 residues) expressed in bacterial expression system assessed as residual binding level at 1 uM by Kinomescan method relative to control.
Chain of Serine/threonine-protein kinase 32C (Homo sapiens) (Q86UX6 whole entry, the tested form may be a part): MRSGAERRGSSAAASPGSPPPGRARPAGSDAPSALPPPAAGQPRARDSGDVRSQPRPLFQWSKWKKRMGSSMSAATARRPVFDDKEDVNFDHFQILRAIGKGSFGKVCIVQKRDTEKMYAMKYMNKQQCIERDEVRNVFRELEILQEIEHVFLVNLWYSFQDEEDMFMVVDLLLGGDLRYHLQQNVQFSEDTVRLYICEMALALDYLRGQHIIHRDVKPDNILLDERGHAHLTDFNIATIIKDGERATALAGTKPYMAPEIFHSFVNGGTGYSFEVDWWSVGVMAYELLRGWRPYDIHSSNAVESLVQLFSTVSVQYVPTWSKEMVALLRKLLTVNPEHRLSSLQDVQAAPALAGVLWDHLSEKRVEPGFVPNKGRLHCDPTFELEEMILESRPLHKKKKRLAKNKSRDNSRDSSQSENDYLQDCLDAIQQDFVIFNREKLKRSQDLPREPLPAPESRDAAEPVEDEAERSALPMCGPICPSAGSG
Assay [19] deals with Epidermal growth factor receptor (Homo sapiens), P00533 [UNDEFINED MUTATION]. Nature of the assay: Binding affinity to human partial length EGFR L747-S752del/P753S mutant expressed in bacterial expression system assessed as residual binding level at 1 uM by Kinomescan method relative to control.
Assay [20] concerns the target Serine/threonine-protein kinase PAK 1 (Homo sapiens) (UniProt Q13153). The experiment in a line: Binding affinity to wild-type human partial length PAK1 (S149 to H545 residues) expressed in bacterial expression system assessed as residual binding level at 1 uM by Kinomescan method relative to control.
In assay [21] the target is Rho-associated protein kinase 1 (Homo sapiens) (UniProt Q13464). Nature of the assay: Binding affinity to wild-type human partial length ROCK1 (M1 to R415 residues) expressed in mammalian expression system assessed as residual binding level at 1 uM by Kinomescan method relative to control.
For assay [22], the target named is Serine/threonine-protein kinase Chk2 (Homo sapiens) (UniProt O96017). The experiment in a line: Binding affinity to wild-type human partial length CHEK2 (S253 to E574 residues) expressed in bacterial expression system assessed as residual binding level at 1 uM by Kinomescan method relative to control.
The target of assay [23] is Fibroblast growth factor receptor 3 (Homo sapiens) (UniProt P22607). The experiment in a line: Binding affinity to wild-type human partial length FGFR3 (R442 to S771 residues) expressed in bacterial expression system assessed as residual binding level at 1 uM by Kinomescan method relative to control.
Chain of Fibroblast growth factor receptor 3 (Homo sapiens) (P22607 23-806 limits assumed): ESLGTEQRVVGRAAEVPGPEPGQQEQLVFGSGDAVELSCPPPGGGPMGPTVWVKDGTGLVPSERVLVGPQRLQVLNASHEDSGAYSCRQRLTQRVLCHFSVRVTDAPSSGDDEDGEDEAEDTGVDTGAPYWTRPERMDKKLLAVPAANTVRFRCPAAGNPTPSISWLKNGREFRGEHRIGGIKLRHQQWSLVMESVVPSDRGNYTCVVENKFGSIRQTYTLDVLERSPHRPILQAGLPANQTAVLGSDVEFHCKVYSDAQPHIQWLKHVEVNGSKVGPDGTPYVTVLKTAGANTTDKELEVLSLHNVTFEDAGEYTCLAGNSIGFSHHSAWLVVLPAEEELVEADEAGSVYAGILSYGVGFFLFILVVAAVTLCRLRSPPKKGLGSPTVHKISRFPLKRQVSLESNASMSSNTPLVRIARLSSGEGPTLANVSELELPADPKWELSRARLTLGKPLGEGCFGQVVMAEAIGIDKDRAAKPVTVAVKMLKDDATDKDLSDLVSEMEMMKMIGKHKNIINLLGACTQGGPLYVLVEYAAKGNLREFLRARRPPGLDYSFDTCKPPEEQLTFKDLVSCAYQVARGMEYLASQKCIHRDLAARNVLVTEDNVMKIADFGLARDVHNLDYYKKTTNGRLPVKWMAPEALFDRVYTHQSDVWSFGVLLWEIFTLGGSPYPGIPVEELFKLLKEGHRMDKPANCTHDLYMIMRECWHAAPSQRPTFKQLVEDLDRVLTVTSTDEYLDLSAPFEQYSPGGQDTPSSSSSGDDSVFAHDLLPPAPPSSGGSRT
Assay [24] concerns the target Serine/threonine-protein kinase 25 (Homo sapiens) (UniProt O00506). Nature of the assay: Binding affinity to wild-type human partial length YSK1 (V14 to H295 residues) expressed in bacterial expression system assessed as residual binding level at 1 uM by Kinomescan method relative to control.

Chain of Glycogen synthase kinase-3 beta (Homo sapiens) (P49841 whole entry, looked up, the tested form may be a part): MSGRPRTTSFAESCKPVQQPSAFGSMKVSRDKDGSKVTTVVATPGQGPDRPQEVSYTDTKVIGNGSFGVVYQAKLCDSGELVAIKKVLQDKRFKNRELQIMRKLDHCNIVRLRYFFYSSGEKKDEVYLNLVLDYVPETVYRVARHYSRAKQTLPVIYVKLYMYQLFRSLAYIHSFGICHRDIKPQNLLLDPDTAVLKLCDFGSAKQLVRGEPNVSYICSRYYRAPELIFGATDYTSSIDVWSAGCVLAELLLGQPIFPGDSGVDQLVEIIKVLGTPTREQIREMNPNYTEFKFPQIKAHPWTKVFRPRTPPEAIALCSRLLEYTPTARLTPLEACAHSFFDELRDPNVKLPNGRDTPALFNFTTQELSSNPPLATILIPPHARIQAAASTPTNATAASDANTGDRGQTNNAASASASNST
Chain of Phosphatidylinositol 3-kinase C2 domain-containing subunit gamma (Homo sapiens) (O75747 whole entry, the tested form may be a part): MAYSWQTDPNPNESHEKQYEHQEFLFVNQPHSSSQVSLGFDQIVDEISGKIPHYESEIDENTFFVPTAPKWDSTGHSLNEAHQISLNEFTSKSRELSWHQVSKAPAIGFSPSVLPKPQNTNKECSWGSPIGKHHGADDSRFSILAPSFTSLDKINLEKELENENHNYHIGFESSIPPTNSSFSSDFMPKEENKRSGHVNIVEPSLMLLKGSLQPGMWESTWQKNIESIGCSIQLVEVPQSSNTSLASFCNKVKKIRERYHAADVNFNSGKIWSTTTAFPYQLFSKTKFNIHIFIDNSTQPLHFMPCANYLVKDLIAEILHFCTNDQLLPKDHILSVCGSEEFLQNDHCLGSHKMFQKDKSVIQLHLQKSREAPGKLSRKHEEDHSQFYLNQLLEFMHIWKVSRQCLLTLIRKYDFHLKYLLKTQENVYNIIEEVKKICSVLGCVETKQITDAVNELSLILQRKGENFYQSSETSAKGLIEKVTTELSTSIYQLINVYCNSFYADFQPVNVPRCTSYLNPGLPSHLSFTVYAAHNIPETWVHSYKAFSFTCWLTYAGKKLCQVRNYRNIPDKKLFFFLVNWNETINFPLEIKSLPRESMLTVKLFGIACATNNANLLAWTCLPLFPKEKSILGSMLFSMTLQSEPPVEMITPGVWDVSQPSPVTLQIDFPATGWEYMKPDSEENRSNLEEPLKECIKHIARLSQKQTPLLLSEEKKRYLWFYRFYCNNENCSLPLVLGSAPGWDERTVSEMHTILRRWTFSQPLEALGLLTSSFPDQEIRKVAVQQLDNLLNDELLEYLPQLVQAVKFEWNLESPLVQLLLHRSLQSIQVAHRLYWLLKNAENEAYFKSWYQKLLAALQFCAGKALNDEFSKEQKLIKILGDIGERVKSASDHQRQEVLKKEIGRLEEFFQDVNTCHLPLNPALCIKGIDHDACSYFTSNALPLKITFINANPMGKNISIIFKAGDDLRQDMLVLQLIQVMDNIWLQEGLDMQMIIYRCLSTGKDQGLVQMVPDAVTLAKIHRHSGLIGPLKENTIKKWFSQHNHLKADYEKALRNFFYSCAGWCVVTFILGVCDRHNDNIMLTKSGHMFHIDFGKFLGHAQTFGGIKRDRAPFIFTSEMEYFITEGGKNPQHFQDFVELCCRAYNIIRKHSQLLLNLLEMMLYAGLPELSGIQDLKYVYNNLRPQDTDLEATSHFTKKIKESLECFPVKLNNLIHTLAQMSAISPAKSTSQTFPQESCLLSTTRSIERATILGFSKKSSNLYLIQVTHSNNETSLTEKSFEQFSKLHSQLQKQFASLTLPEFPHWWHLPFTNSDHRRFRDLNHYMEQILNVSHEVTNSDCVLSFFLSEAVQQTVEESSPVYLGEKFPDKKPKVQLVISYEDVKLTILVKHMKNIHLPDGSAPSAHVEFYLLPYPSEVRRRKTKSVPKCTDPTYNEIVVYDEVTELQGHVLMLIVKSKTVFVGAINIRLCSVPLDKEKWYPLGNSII
Chain of Dual specificity mitogen-activated protein kinase kinase 6 (Homo sapiens) (P52564 whole entry, the tested form may be a part): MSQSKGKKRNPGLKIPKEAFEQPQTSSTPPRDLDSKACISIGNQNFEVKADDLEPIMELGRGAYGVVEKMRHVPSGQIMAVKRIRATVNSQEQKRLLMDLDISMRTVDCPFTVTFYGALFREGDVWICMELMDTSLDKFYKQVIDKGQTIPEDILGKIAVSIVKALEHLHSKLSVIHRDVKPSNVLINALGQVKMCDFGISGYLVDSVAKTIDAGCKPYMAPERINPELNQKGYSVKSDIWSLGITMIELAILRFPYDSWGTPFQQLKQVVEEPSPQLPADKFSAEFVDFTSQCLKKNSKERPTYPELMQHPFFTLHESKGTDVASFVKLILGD

In the case of `CC(C)Nc1sc(C(=O)c2ccc(Cl)s2)c(N)c1C#N`, the Activity was found to be 82% in assay [1]; 97% in assay [2]; 85% in [3]; 84% in [4]; 100% in assay [5]; 100% in assay [6]. Besides, the Activity in [7] amounted to 64%; in assay [8] it was 62%; in [9], 100%; in [10], 69%; in assay [11] it was 55%; in assay [12] it was 60%. The Activity in assay [13] stood at 87%; in assay [14], 87%; in assay [15], 93%; in [16], 94%; in assay [17], 59%; in assay [18] it was 82%. The Activity in assay [19] worked out at 82%; in [20], 83%; in assay [21], 100%; in assay [22], 84%; in [23] it was 100%; in assay [24] it was 81%.
